According to ChEMBL document CHEMBL4507302, “Data for DCP probe TP-020” (2021):

Legend:
[1] = target: Serine/threonine-protein kinase 38-like (Homo sapiens) (UniProt Q9Y2H1); conditions: Compound concentration 1000.0 nM
[2] = target: Receptor tyrosine-protein kinase erbB-3 (Homo sapiens) (UniProt P21860); conditions: Compound concentration 1000.0 nM
[3] = target: Tyrosine-protein kinase Srms (Homo sapiens) (UniProt Q9H3Y6); conditions: Compound concentration 1000.0 nM
[4] = target: Serine/threonine-protein kinase WNK4 (Homo sapiens) (UniProt Q96J92); conditions: Compound concentration 1000.0 nM
[5] = target: Mitogen-activated protein kinase kinase kinase 12 (Homo sapiens) (UniProt Q12852); conditions: Compound concentration 1000.0 nM
[6] = tested on: Fibroblast growth factor receptor 3 (Homo sapiens), P22607 [G697C]; conditions: Compound concentration 1000.0 nM
[7] = target: Phosphatidylinositol 5-phosphate 4-kinase type-2 gamma (Homo sapiens) (UniProt Q8TBX8); conditions: Compound concentration 1000.0 nM
[8] = target: Ribosomal protein S6 kinase alpha-2 (Homo sapiens) (UniProt Q15349); conditions: Compound concentration 1000.0 nM
[9] = target: Casein kinase I isoform epsilon (Homo sapiens) (UniProt P49674); conditions: Compound concentration 1000.0 nM
[10] = target: cGMP-dependent protein kinase 2 (Homo sapiens) (UniProt Q13237); conditions: Compound concentration 1000.0 nM
[11] = target: Activin receptor type-2A (Homo sapiens) (UniProt P27037); conditions: Compound concentration 1000.0 nM
[12] = target: Tyrosine-protein kinase Lck (Homo sapiens) (UniProt P06239); conditions: Compound concentration 1000.0 nM
[13] = target: Cyclin-dependent kinase-like 1 (Homo sapiens) (UniProt Q00532); conditions: Compound concentration 1000.0 nM
[14] = target: Casein kinase I isoform delta (Homo sapiens) (UniProt P48730); conditions: Compound concentration 1000.0 nM
[15] = target: Serine/threonine-protein kinase 32A (Homo sapiens) (UniProt Q8WU08); conditions: Compound concentration 1000.0 nM
[16] = target: Microtubule-associated serine/threonine-protein kinase 1 (Homo sapiens) (UniProt Q9Y2H9); conditions: Compound concentration 1000.0 nM
[17] = target: Activin receptor type-1 (Homo sapiens) (UniProt Q04771); conditions: Compound concentration 1000.0 nM
[18] = target: Wee1-like protein kinase (Homo sapiens) (UniProt P30291); conditions: Compound concentration 1000.0 nM
[19] = target: 5-hydroxytryptamine receptor 2B (Homo sapiens) (UniProt P41595); conditions: Compound concentration 10.0 uM
[20] = target: Activin receptor type-1B (Homo sapiens) (UniProt P36896); conditions: Compound concentration 1000.0 nM
[21] = target: D(1B) dopamine receptor (Homo sapiens) (UniProt P21918); conditions: Compound concentration 10.0 uM
[22] = target: Serine/threonine-protein kinase PAK 6 (Homo sapiens) (UniProt Q9NQU5); conditions: Compound concentration 1000.0 nM
[23] = target: Protein kinase C theta type (Homo sapiens) (UniProt Q04759); conditions: Compound concentration 1000.0 nM
[24] = tested on: Tyrosine-protein kinase ABL1 (Homo sapiens), P00519 [Q252H]; conditions: Compound concentration 1000.0 nM
[25] = target: Mitogen-activated protein kinase kinase kinase 15 (Homo sapiens) (UniProt Q6ZN16); conditions: Compound concentration 1000.0 nM
[26] = target: Vascular endothelial growth factor receptor 1 (Homo sapiens) (UniProt P17948); conditions: Compound concentration 1000.0 nM
[27] = target: Ephrin type-B receptor 6 (Homo sapiens) (UniProt O15197); conditions: Compound concentration 1000.0 nM
[28] = target: Ribosomal protein S6 kinase alpha-3 (Homo sapiens) (UniProt P51812); conditions: Compound concentration 1000.0 nM
[29] = tested on: ALK tyrosine kinase receptor (Homo sapiens), Q9UM73 [L1196M]; conditions: Compound concentration 1000.0 nM
[30] = target: Serine/threonine-protein kinase Chk2 (Homo sapiens) (UniProt O96017); conditions: Compound concentration 1000.0 nM
[31] = target: Macrophage colony-stimulating factor 1 receptor (Homo sapiens) (UniProt P07333); conditions: Compound concentration 1000.0 nM
[32] = target: Dual specificity mitogen-activated protein kinase kinase 3 (Homo sapiens) (UniProt P46734); conditions: Compound concentration 1000.0 nM
[33] = target: 5-hydroxytryptamine receptor 1B (Homo sapiens) (UniProt P28222); conditions: Compound concentration 10.0 uM
[34] = target: Myosin light chain kinase 2, skeletal/cardiac muscle (Homo sapiens) (UniProt Q9H1R3); conditions: Compound concentration 1000.0 nM
[35] = target: Mitogen-activated protein kinase kinase kinase 9 (Homo sapiens) (UniProt P80192); conditions: Compound concentration 1000.0 nM
[36] = target: Tyrosine-protein kinase receptor UFO (Homo sapiens) (UniProt P30530); conditions: Compound concentration 1000.0 nM
[37] = target: MAP/microtubule affinity-regulating kinase 3 (Homo sapiens) (UniProt P27448); conditions: Compound concentration 1000.0 nM
[38] = target: AP2-associated protein kinase 1 (Homo sapiens) (UniProt Q2M2I8); conditions: Compound concentration 1000.0 nM
[39] = target: Ribosomal protein S6 kinase alpha-2 (Homo sapiens) (UniProt Q15349); conditions: Compound concentration 1000.0 nM; remark: listed apart in the source
[40] = target: Tyrosine-protein kinase ZAP-70 (Homo sapiens) (UniProt P43403); conditions: Compound concentration 1000.0 nM
[41] = target: Tyrosine-protein kinase Fgr (Homo sapiens) (UniProt P09769); conditions: Compound concentration 1000.0 nM
[42] = target: NUAK family SNF1-like kinase 2 (Homo sapiens) (UniProt Q9H093); conditions: Compound concentration 1000.0 nM
[43] = target: Ribosomal protein S6 kinase alpha-4 (Homo sapiens) (UniProt O75676); conditions: Compound concentration 1000.0 nM
[44] = tested on: Tyrosine-protein kinase ABL1 (Homo sapiens), P00519 [H396P]; conditions: Compound concentration 1000.0 nM
[45] = target: Mitogen-activated protein kinase kinase kinase 3 (Homo sapiens) (UniProt Q99759); conditions: Compound concentration 1000.0 nM

Ribosomal protein S6 kinase alpha-2 (Homo sapiens), sequence (Q15349 whole entry, canonical isoform): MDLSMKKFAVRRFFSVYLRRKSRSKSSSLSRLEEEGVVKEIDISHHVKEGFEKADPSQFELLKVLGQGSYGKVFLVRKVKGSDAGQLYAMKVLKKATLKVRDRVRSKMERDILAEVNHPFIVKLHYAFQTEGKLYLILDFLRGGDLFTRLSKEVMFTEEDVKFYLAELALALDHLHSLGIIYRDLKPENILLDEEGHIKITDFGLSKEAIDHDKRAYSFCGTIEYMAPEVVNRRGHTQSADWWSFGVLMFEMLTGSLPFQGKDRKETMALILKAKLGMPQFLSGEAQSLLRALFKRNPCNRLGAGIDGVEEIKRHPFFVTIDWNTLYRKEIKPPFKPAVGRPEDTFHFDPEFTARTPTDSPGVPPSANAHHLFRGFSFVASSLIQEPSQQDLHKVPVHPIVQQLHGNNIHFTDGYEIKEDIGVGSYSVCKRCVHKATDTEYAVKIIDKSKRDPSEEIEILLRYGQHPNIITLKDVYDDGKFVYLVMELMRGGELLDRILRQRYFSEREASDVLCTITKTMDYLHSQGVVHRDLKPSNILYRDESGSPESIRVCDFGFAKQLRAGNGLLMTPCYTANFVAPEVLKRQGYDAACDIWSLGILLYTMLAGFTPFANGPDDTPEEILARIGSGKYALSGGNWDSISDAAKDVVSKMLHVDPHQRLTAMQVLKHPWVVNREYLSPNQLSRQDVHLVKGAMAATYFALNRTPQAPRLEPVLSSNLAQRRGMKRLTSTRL
Tyrosine-protein kinase Srms (Homo sapiens), sequence (Q9H3Y6 whole entry): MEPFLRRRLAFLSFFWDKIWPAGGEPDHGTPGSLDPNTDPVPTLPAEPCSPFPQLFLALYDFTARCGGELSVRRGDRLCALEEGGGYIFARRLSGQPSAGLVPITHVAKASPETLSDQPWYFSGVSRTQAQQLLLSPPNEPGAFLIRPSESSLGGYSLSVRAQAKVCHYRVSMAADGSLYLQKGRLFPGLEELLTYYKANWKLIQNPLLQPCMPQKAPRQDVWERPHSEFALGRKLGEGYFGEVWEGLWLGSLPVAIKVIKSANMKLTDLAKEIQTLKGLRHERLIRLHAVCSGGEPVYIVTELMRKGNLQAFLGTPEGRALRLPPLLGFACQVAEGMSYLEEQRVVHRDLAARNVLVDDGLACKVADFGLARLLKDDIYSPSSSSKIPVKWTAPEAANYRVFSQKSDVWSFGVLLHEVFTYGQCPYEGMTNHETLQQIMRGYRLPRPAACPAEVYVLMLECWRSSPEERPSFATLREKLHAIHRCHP
Dual specificity mitogen-activated protein kinase kinase 3 (Homo sapiens), sequence (P46734 whole entry): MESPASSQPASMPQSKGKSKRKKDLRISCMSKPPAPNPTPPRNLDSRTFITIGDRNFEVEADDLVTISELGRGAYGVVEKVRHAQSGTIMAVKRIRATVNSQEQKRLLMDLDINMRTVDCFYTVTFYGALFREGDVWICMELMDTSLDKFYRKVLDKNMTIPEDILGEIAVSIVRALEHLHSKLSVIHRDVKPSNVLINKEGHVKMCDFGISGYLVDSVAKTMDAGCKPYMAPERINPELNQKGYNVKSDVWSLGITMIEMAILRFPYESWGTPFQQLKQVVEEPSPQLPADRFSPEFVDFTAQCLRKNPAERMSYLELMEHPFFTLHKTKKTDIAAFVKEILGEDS
Vascular endothelial growth factor receptor 1 (Homo sapiens), sequence (P17948 whole entry): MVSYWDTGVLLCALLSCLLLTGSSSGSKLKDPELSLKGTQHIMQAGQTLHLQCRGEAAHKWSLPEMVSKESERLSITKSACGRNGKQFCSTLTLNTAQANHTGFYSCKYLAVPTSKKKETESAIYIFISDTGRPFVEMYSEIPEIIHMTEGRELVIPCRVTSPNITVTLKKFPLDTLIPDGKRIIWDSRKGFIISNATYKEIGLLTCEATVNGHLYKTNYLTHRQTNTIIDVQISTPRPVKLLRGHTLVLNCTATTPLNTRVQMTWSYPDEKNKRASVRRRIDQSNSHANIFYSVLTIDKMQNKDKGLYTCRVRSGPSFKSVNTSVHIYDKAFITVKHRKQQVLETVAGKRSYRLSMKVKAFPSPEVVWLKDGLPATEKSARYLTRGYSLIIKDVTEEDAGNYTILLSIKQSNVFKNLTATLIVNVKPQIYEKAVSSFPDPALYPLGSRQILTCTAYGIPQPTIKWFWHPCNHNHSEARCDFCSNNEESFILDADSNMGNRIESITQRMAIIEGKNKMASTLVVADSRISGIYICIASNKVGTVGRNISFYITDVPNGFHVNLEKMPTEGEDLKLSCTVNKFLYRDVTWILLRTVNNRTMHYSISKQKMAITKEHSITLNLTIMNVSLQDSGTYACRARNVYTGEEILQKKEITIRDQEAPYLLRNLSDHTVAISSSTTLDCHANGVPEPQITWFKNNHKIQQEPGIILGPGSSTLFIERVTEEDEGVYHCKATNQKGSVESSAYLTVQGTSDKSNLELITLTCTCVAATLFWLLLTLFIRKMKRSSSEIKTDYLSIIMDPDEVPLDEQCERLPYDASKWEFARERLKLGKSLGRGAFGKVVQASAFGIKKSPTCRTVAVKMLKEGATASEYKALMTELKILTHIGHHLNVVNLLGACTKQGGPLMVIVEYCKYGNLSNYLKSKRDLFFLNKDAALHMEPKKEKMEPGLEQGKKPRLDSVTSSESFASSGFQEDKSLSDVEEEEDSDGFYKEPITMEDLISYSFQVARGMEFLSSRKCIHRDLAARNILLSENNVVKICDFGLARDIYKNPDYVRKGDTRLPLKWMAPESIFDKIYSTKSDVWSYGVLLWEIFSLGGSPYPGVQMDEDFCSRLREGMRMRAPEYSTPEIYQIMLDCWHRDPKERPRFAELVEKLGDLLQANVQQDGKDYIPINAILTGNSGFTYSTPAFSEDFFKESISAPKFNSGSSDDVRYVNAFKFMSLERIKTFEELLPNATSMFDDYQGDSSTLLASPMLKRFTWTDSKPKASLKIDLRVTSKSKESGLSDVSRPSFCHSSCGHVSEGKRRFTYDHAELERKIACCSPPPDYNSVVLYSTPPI
cGMP-dependent protein kinase 2 (Homo sapiens), sequence (Q13237 whole entry): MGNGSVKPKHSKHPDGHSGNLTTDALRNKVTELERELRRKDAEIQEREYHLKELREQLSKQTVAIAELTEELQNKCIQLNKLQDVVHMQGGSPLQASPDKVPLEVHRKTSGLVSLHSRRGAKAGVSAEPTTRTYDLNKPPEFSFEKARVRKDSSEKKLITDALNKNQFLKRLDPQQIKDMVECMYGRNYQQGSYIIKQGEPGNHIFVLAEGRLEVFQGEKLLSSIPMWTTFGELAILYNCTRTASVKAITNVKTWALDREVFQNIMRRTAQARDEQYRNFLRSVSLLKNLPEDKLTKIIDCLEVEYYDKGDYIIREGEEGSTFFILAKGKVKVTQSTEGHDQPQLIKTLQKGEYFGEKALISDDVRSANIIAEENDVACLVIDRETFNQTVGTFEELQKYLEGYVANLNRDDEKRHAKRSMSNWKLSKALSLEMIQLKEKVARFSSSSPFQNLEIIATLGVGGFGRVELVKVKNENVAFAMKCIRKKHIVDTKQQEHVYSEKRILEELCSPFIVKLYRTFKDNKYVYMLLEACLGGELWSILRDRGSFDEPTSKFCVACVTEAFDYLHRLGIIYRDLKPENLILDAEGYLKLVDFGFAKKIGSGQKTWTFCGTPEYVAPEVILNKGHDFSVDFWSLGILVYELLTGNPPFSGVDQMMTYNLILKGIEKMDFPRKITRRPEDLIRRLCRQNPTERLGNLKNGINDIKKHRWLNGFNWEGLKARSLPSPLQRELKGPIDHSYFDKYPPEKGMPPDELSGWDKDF
Tyrosine-protein kinase receptor UFO (Homo sapiens), sequence (P30530 whole entry): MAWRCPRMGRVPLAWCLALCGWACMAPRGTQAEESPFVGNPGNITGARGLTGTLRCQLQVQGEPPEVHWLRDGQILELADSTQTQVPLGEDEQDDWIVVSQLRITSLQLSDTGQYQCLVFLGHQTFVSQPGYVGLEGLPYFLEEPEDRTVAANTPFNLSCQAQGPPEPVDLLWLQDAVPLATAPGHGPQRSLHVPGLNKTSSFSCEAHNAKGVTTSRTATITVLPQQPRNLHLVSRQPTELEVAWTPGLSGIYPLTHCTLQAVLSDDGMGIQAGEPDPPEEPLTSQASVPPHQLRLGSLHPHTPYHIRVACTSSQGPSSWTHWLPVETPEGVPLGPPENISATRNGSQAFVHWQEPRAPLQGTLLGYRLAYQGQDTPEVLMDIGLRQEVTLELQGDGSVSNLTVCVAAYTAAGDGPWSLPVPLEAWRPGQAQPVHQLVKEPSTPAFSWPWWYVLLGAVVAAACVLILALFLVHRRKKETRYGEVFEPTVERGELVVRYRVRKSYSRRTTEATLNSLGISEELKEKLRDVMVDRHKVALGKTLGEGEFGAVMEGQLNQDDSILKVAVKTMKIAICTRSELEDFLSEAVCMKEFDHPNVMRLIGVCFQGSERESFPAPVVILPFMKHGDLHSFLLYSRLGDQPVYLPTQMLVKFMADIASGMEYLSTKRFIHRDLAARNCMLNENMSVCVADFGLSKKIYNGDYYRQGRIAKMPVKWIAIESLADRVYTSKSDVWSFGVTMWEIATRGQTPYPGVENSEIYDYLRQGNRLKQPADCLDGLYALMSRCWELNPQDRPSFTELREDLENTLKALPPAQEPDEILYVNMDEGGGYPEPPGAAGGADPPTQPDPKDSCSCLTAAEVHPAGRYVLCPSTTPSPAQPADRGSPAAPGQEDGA
Tyrosine-protein kinase Lck (Homo sapiens), sequence (P06239 2-509 limits assumed): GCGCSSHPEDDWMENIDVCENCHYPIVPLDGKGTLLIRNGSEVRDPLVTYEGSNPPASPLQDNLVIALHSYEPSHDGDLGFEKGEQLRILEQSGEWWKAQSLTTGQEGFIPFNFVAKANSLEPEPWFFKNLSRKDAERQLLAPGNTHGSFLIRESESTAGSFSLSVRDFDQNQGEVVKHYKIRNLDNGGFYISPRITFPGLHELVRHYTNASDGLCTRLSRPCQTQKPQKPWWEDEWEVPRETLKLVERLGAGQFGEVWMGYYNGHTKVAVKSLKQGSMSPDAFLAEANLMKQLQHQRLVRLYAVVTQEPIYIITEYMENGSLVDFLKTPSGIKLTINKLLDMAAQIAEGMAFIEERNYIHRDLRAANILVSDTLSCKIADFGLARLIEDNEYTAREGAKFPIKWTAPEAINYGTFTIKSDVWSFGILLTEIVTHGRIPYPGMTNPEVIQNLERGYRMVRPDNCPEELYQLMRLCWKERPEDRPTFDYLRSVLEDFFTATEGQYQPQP

Question: For `Nc1cnc(N2CCc3cc(S(=O)(=O)Nc4c(F)cc(Cl)cc4F)cc(N4CCCC4=O)c32)nc1`, which residual activity [1] is on record?
Answer: The residual activity was 42%.

Question: And the residual activity [2]?
Answer: The residual activity was 100%.

Question: And the residual activity [3]?
Answer: Its residual activity is 88%.

Question: And the residual activity [4]?
Answer: The residual activity was 100%.

Question: And the residual activity [5]?
Answer: Its residual activity is 100%.

Question: What about the residual activity [6] of the same compound?
Answer: Its residual activity is 89%.

Question: And the residual activity [7]?
Answer: The residual activity was 100%.

Question: And the residual activity [8]?
Answer: Its residual activity is 88%.

Question: What about the residual activity [9] of the same compound?
Answer: Its residual activity is 89%.

Question: What about the residual activity [10] of the same compound?
Answer: Its residual activity is 84%.

Question: And the residual activity [11]?
Answer: The residual activity was 67%.

Question: And the residual activity [12]?
Answer: Its residual activity is 100%.

Question: And the residual activity [13]?
Answer: Its residual activity is 85%.

Question: What about the residual activity [14] of the same compound?
Answer: The residual activity was 98%.

Question: What about the residual activity [15] of the same compound?
Answer: The residual activity was 80%.

Question: What about the residual activity [16] of the same compound?
Answer: The residual activity was 97%.

Question: And the residual activity [17]?
Answer: Its residual activity is 100%.

Question: What about the residual activity [18] of the same compound?
Answer: The residual activity was 72%.

Question: And the inhibition [19]?
Answer: Its inhibition is 12.9%.

Question: What about the residual activity [20] of the same compound?
Answer: The residual activity was 96%.

Question: And the inhibition [21]?
Answer: The inhibition was 7.88%.

Question: What about the residual activity [22] of the same compound?
Answer: The residual activity was 100%.

Question: What about the residual activity [23] of the same compound?
Answer: Its residual activity is 89%.

Question: And the residual activity [24]?
Answer: Its residual activity is 100%.

Question: And the residual activity [25]?
Answer: The residual activity was 100%.

Question: And the residual activity [26]?
Answer: Its residual activity is 93%.

Question: And the residual activity [27]?
Answer: Its residual activity is 100%.

Question: And the residual activity [28]?
Answer: The residual activity was 100%.

Question: What about the residual activity [29] of the same compound?
Answer: Its residual activity is 81%.

Question: What about the residual activity [30] of the same compound?
Answer: Its residual activity is 92%.

Question: And the residual activity [31]?
Answer: Its residual activity is 100%.

Question: And the residual activity [32]?
Answer: Its residual activity is 100%.

Question: What about the inhibition [33] of the same compound?
Answer: The inhibition was -3.82%.

Question: And the residual activity [34]?
Answer: Its residual activity is 87%.

Question: What about the residual activity [35] of the same compound?
Answer: Its residual activity is 100%.

Question: What about the residual activity [36] of the same compound?
Answer: Its residual activity is 69%.

Question: What about the residual activity [37] of the same compound?
Answer: The residual activity was 100%.

Question: And the residual activity [38]?
Answer: The residual activity was 100%.

Question: What about the residual activity [39] of the same compound?
Answer: Its residual activity is 100%.

Question: And the residual activity [40]?
Answer: The residual activity was 85%.

Question: And the residual activity [41]?
Answer: Its residual activity is 100%.

Question: What about the residual activity [42] of the same compound?
Answer: The residual activity was 100%.

Question: What about the residual activity [43] of the same compound?
Answer: Its residual activity is 100%.

Question: What about the residual activity [44] of the same compound?
Answer: Its residual activity is 86%.

Question: What about the residual activity [45] of the same compound?
Answer: Its residual activity is 97%.

Question: How did the residual activity [1] turn out when `Cn1nc(C(F)(F)F)cc1-c1cnc(N2CCc3cc(S(=O)(=O)Nc4c(F)cc(Cl)cc4F)cc(N4CCCC4=O)c32)nc1` [TP-020] was run?
Answer: The residual activity was 88%.

Question: What about the residual activity [2] of the same compound?
Answer: Its residual activity is 93%.

Question: What about the residual activity [3] of the same compound?
Answer: The residual activity was 100%.

Question: And the residual activity [4]?
Answer: Its residual activity is 83%.

Question: What about the residual activity [5] of the same compound?
Answer: Its residual activity is 72%.

Question: And the residual activity [6]?
Answer: Its residual activity is 100%.

Question: What about the residual activity [7] of the same compound?
Answer: The residual activity was 66%.

Question: And the residual activity [8]?
Answer: Its residual activity is 100%.

Question: And the residual activity [9]?
Answer: The residual activity was 86%.

Question: And the residual activity [10]?
Answer: The residual activity was 90%.

Question: What about the residual activity [11] of the same compound?
Answer: The residual activity was 83%.

Question: What about the residual activity [12] of the same compound?
Answer: Its residual activity is 100%.

Question: And the residual activity [13]?
Answer: The residual activity was 77%.

Question: What about the residual activity [14] of the same compound?
Answer: Its residual activity is 94%.

Question: What about the residual activity [15] of the same compound?
Answer: Its residual activity is 78%.

Question: What about the residual activity [16] of the same compound?
Answer: The residual activity was 100%.

Question: What about the residual activity [17] of the same compound?
Answer: The residual activity was 85%.

Question: And the residual activity [18]?
Answer: Its residual activity is 88%.

Question: And the inhibition [19]?
Answer: Its inhibition is 24.7%.

Question: And the residual activity [20]?
Answer: Its residual activity is 96%.

Question: And the inhibition [21]?
Answer: Its inhibition is 42.5%.

Question: And the residual activity [22]?
Answer: Its residual activity is 100%.

Question: And the residual activity [23]?
Answer: The residual activity was 100%.

Question: What about the residual activity [24] of the same compound?
Answer: Its residual activity is 85%.

Question: And the residual activity [25]?
Answer: Its residual activity is 81%.

Question: What about the residual activity [26] of the same compound?
Answer: The residual activity was 95%.

Question: And the residual activity [27]?
Answer: Its residual activity is 82%.

Question: What about the residual activity [28] of the same compound?
Answer: Its residual activity is 99%.

Question: And the residual activity [29]?
Answer: The residual activity was 78%.

Question: What about the residual activity [30] of the same compound?
Answer: Its residual activity is 100%.

Question: What about the residual activity [31] of the same compound?
Answer: The residual activity was 91%.

Question: What about the residual activity [32] of the same compound?
Answer: The residual activity was 82%.

Question: And the inhibition [33]?
Answer: The inhibition was 9.13%.

Question: What about the residual activity [34] of the same compound?
Answer: Its residual activity is 100%.

Question: What about the residual activity [35] of the same compound?
Answer: The residual activity was 100%.

Question: What about the residual activity [36] of the same compound?
Answer: Its residual activity is 93%.

Question: What about the residual activity [37] of the same compound?
Answer: The residual activity was 12%.

Question: What about the residual activity [38] of the same compound?
Answer: The residual activity was 100%.

Question: And the residual activity [39]?
Answer: Its residual activity is 77%.

Question: And the residual activity [40]?
Answer: Its residual activity is 93%.

Question: What about the residual activity [41] of the same compound?
Answer: Its residual activity is 90%.

Question: And the residual activity [42]?
Answer: Its residual activity is 89%.

Question: And the residual activity [43]?
Answer: Its residual activity is 82%.

Question: And the residual activity [44]?
Answer: Its residual activity is 87%.

Question: What about the residual activity [45] of the same compound?
Answer: The residual activity was 89%.
